Laboratory results as given in US9446047B2, “Substituted 2,3-dihydro-1H-inden-1-one retinoic acid-related orphan nuclear receptor antagonists for treating multiple sclerosis” (Arrien Pharmaceuticals LLC, priority 2013, dated 2016).
Where two headings read alike, the source gives them in different places.

What was measured:
[1] = system: IL-17 release from CD4+ T cells; assay: Cytokine IL-17 estimation by HTRF, IL-17 release from CD4+ T cells; type: cell-based; conditions: Homo sapiens, HTRF
IL-17 production = assay: Anti-CD3e antibody induced CD4+ T cell cytokine IL-17 production in male BALB/c mice (serum ELISA); type: in vivo, mouse; conditions: Dexamethasone treatment; serum at 1.5 h after anti-CD3e antibody
Procedure: Efficacy of substituted 2, 3-dihydro-1H-inden-1-one containing selected compounds on Inhibition of Anti-CD3e Antibody induced CD4^+ T cell Cytokine-IL-17 Production in Male BALB/c Mice
A quantitative analysis of mouse IL-17 sandwich ELISA was conducted from the collected serum samples (Mouse IL-17 ELISA Ready-DuoSet ELISA kit, from R&D Systems, USA). The serum samples tested were collected from mice after 1.5 h of anti-CD3e antibody challenge, before antibody challenge, the mice were treated with different doses of test compounds or Dexamethasone as mentioned above in experimental design. The capture antibody was diluted in coating buffer (1×PBS) and transferred into each well. The plate was sealed and incubated overnight at RT. The following day the wells of the plate were aspirated and washed (3 times), allowing a one minute soak time in each step. The plate was blocked using 1% BSA in PBS, sealed, and incubated in ambient conditions for not less than one hour. After the incubation period, the plate was washed as described above, and the standards and serum samples were added to the appropriate wells and incubated for two hours at RT. […] The plate was read at 450/570 nm using the Microplate Absorbance Reader (SpectraMax; M3). […] Percent inhibition of cytokine production was calculated for all groups compared to positive control.

RORγ-LBD (RORγt) = molecular target: T1, RORγ-LBD (RORγt) (Homo sapiens, UniProt P51449); assay: TR-FRET RORγt Binding Assay; conditions: 6-His(GST)RORγ-LBD, SRC1_2 peptide, read-out: RORγt Binding
T1 construct: the 6-His-(GST) RORγ-LBD was used which expressed and purified from baculovirus infected Sf-21 insect cells; made in house; host or cells: baculovirus-infected Sf-21 insect cells
T1 sequence (P51449 269-508 limits assumed): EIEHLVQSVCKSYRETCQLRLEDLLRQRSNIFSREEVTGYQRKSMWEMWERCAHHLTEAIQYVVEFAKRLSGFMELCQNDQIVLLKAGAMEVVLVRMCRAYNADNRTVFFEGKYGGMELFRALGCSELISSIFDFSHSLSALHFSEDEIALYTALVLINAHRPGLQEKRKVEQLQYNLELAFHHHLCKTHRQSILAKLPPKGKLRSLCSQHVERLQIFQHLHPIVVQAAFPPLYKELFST

RORγt = molecular target: T2, RORγt (Homo sapiens, UniProt P51449); assay: RORγt-activated IL-17A Prom/LUCPorter HEK 293 cells luciferase reporter assay; type: cell-based; conditions: IL-17A Prom/LUCPorter HEK 293 cells transfected with RORγt, 16 h; read-out: RORγt Cell Specific
T2 construct: host or cells: IL-17A Prom/LUCPorter HEK 293 cell line (IMGENEX, IML-301)
T2 sequence (P51449 1-497 isoform P51449-2): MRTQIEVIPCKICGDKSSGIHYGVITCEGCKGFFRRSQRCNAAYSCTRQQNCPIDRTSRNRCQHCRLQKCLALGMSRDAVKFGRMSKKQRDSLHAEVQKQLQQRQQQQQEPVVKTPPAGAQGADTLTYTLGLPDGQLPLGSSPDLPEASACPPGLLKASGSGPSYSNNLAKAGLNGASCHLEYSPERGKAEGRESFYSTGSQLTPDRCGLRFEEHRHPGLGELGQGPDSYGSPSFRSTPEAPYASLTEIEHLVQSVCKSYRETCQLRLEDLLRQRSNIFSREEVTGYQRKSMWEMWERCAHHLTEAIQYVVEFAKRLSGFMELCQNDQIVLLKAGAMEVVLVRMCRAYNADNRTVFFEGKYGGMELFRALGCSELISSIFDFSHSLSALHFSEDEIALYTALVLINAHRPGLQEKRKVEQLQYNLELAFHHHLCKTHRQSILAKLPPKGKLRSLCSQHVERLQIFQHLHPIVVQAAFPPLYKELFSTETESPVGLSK

[2] = Rat pharmacokinetics, intravenous bolus and oral gavage; type: in vivo, male Sprague Dawley rats; conditions: plasma
Procedure: The bio-availability and pharmacokinetics of some compounds of the present invention were examined in male Sprague Dawley rats. A total of 6 male rats were used in the study. The study was performed using parallel design (n=3) with serial sampling.
Dose formulations were prepared on the day of doing. Blood samples were collected at 0.083 (only IV), 0.25, 0.5, 1, 2, 4, 8 and 24 h post-dose. At each time point, approximately 0.2 mL of blood was withdrawn from each cannulated rat through jugular vein and transferred to a pre-labeled microfuge tube containing 20 μL of […] K2EDTA per mL of blood. Following collection of blood sample, equal volume of heparinized saline was flushed into jugular vein of rat. The blood samples were centrifuged at 5000 g for 5 min at 4±2° C. The plasma was separated within 30 min of scheduled time and stored below −60° C. until bio-analysis. The plasma samples were analyzed for selected test EXAMPLES using a fixed-for purpose liquid chromatographic tandem mass spectrometric detection (LC-MS/MS) method with a lower limit of quantification of 2.21 ng/mL. The pharmacokinetic parameters for select EXAMPLES were calculated using the non-compartmental analysis tool of validated WinNonlin® software (Version 5.2).
Pharmacokinetic parameters (mean±SD; n=3) of 7 following intravenous bolus and oral gavage administration of 7 solution in male Sprague Dawley rats are shown in TABLE 4 below: […]

[3] = IL-17 release from CD4+ T cells, read-out: IL-17 Inhibition
[4] = IV 2 mg/kg, solution, male Sprague Dawley rats, mean±SD n=3
[5] = PO 10 mg/kg, solution, male Sprague Dawley rats, mean±SD n=3

| SMILES | IC50 (RORγ-LBD (RORγt)) [nM] | IC50 (RORγt) [nM] | IC50 [1, 3] [nM] | other results |
| --- | --- | --- | --- | --- |
| C[C@@H]1C[C@H]2[C@@H]3CCC4=CC(=O)C=C[C@]4(C)[C@@]3(F)[C@@H](O)C[C@]2(C)[C@@]1(O)C(=O)CO [Dexamethasone, reference compound] | – | – | – | IC50 ([1]; CD4+ T lymphocytes, standards, read-out: IC50 of IL-17 inhibition (assay standards)): 14 nM; reduction in IL-17 production compared to positive control group (IL-17 production): 94% |
| COc1cc2c(cc1N1CCOCC1)CC(Cc1cccc(OC(F)(F)F)c1)C2=O (stereo not drawn) [compound 31, 6-methoxy-5-morpholino-2-(3-(trifluoromethoxy)benzyl)-2,3-dihydro-1H-inden-1-one] | > 1000 | > 10000 | > 1000 | bioavailability ([2]; male, Sprague Dawley, PO 10 mg/kg vs IV 2 mg/kg, AUCinf and nominal doses used, read-out: F (bioavailability)): 19%; AUC(0-inf) [2, 4]: 589 ± 63.9 ng·h/mL; AUC(0-t) [2, 4]: 572 ± 57.4 ng·h/mL; clearance [2, 4]: 57 ± 5.85 mL/min/kg; half-life [2, 4]: 398 ± 295 min; Cmax ([2]; IV 2 mg/kg, solution, male Sprague Dawley rats, mean±SD n=3, footnote b: back extrapolated concentration at time zero): 1940 ± 482 ng/mL; AUC(0-inf) [2, 5]: 558 ± 125 ng·h/mL; AUC(0-t) [2, 5]: 553 ± 124 ng·h/mL; Cmax [2, 5]: 176 ± 22.7 ng/mL; Tmax ([2]; PO 10 mg/kg, solution, male Sprague Dawley rats, median (min-max)): 2 h |
| COc1cc2c(cc1N1CCOCC1)CC(Cc1cncc(C(O)(C(F)(F)F)C(F)(F)F)c1)C2=O (stereo not drawn) [compound 245] | > 1000 | < 500 | > 1000 | – |
| COc1cc2c(cc1N1CCOCC1)CC(Cc1ncc(C(O)(C(F)(F)F)C(F)(F)F)cc1C(F)(F)F)C2=O (stereo not drawn) [compound 268] | < 500 | < 500 | < 500 | – |

The next lines start with results.

| IC50 (RORγ-LBD (RORγt)) [nM] | IC50 (RORγt) [nM] | IC50 [1, 3] [nM] | SMILES | other results |
| --- | --- | --- | --- | --- |
| < 500 | < 500 | < 500 | COc1cc2c(cc1N1CCN(C)CC1)CC(Cc1cc(C(F)(F)F)cc(C(O)(C(F)(F)F)C(F)(F)F)c1)C2=O (stereo not drawn) [compound 240, 2-(3-(1,1,1,3,3,3-hexafluoro-2-hydroxypropan-2-yl)-5-(trifluoromethyl)benzyl)-6-methoxy-5-(4-methylpiperazin-1-yl)-2,3-dihydro-1H-inden-1-one] | – |
| < 500 | < 500 | < 500 | COc1cc2c(cc1N1CCN(CCO)CC1)CC(Cc1ncccc1C(F)(F)F)C2=O (stereo not drawn) [compound 251] | – |
| < 500 | < 500 | < 500 | COc1cc2c(cc1N1CCN(C)CC1)CC(Cc1cncc(C(O)(C(F)(F)F)C(F)(F)F)c1)C2=O (stereo not drawn) [compound 256] | – |
| < 500 | < 500 | < 500 | COc1cc2c(cc1N1CCOCC1)CC(Cc1cccc(C(O)(C(F)(F)F)C(F)(F)F)n1)C2=O (stereo not drawn) [compound 266] | – |
